The nature of the data set: first clinical trials, oral administration, plasma levels. The data set is classed as in vivo.
[1] abbreviates: conventional tablets containing the compound of formula (I), first clinical trials.

In the case of `CCCCCCOC(=O)NC(=N)c1ccc(NCc2nc3cc(C(=O)N(CCC(=O)OCC)c4ccccn4)ccc3n2C)cc1` [compound of formula (I), ethyl 3-[(2-{[4-(hexyloxycarbonylaminoiminomethyl)phenylamino]methyl}-1-methyl-1H-benzimidazole-5-carbonyl)pyridin-2-ylamino]propionate], where the note is “administered as an oral solution”, the malabsorption entry is “no instances of malabsorption have been observed”. Further, the “variability of the plasma level patterns” value (administered as an oral solution, compared with conventional tablets) is recorded as “significantly lower”. Under setting [1], the malabsorption result is reported as “individual cases of malabsorption” and the “variability of plasma levels” value is reported as “highly variable plasma levels”.

These data come from patent US20050038077A1, “Tablet containing 3-[(2-{[4-(hexyloxycarbonylamino-imino-methyl)-phenylamino]-methyl}-1-methyl-1H- benzimidazol-5-carbonyl)-pyridin-2-yl-amino]-propionic acid ethylester or the salts thereof” (Boehringer Ingelheim International GmbH, priority 2003, published 2005).
